Assays:
[1] = test system: KB-3-1 adenocarcinoma cells; experiment: MTT cytotoxicity assay, parental P-gp-negative KB-3-1 cells; assay type: cell-based, human
Procedure: (§1) Exemplary compounds were also tested against the KB-V1 adenocarcinoma cell line that expresses high levels of P-gp (the protein product of MDR1). […] MDR1 selectivity is determined by the ratio of IC50 against KB-3-1 cells divided by its IC50 against KB-V1 cells.
(§2) This example describes evaluation of compounds using the MTT cytotoxicity assay. Cell survival was measured by the MTT (3-(4,5-dimethylthiazol-2-yl)-2,5-diphenyltetrazolium bromide) assay as previously described by Ludwig, J. A. et al. Selective toxicity of NSC73306 in MDR1-positive cells as a new strategy to circumvent multidrug resistance in cancer. […] Briefly, cells were seeded in […] of growth medium at a density of 5000 cells/well in 96-well plates and allowed to establish for 24 hours, at which time serially diluted drugs were added in an additional […] growth medium. Cells were then incubated for 72 hours at 37° C. in humidified 5% CO2, at which time the growth media was drawn, and replaced with MTT in IMDM growth media and incubated for 4 hours. The MTT solution was then drawn from the wells, and […] acidified ethanol solution was added to each well and after 15 minutes absorption at 560 nm was measured.

[2] = test system: KB-V1 adenocarcinoma cell line; experiment: MTT cytotoxicity assay, P-gp (MDR1) expressing KB-V1 cells; MDR1 selectivity vs KB-3-1; assay type: cell-based, human; details: for IC50: MTT, 72 hours; for MDR1 select.: ratio of IC50 against KB-3-1 divided by IC50 against KB-V1
Procedure: as §1, §2

[3] = Table 2, 72 hours, unit inferred

Row | SMILES | IC50 ([1]; Homo sapiens, Table 1, 72 hours, KB-3-1 (P-gp-negative)) [µM] | IC50 ([2]; Homo sapiens, Table 1, KB-V1 (high P-gp)) [µM] | IC50 [1, 3] [µM] | IC50 ([2]; Table 2, unit inferred) [µM] | MDR1 select. ([2]; Table 2)
1 | CC(=O)Nc1ccc(/C=N/NC(N)=S)cc1 | > 50 | > 50 | – | – | –
2 | O=C1Nc2ccccc2C1=NNC(=S)NCc1ccccc1 [Compound M6, 1-Isatin-4-benzyl-3-thiosemicarbazone] | – | – | 11.7 | 7.63 | 1.53
3 | O=C1Nc2ccccc2C1=NNC(=S)Nc1cccc(Cl)c1 [Compound M7, 1-Isatin-(3′-chlorophenyl)-3-thiosemicarbazone] | – | – | 1.87 | 0.64 | 2.92
4 | COc1cc(NC(=S)NN=C2C(=O)Nc3ccccc32)cc(OC)c1OC [Compound M23, 1-isatin-4-(3′,4′,5′-trimethoxyphenyl)-3-thiosemicarbazone] | – | – | 11.1 | 3.49 | 3.18
5 | O=C1Nc2ccccc2C1=NNC(=S)Nc1ccc(Oc2ccccc2)cc1 [Compound M21, 1-Isatin-4-(4-phenoxybenzene)-3-thiosemicarbazone] | – | – | 5.72 | 1.67 | 3.44

From patent US20100316655A1, “COMPOUNDS WITH MDR1-INVERSE ACTIVITY” (priority 2008, published 2010)
